Measurements published in US8317991B2, “Process for electrokinetic migration through liquid membranes” (priority 2005, dated 2012).
Where a name gives a salt, the structure may show the parent alone.

Legend:
[1] = 1-octanol/water partition coefficient; Clarkes Analysis of Drugs and Poisons; cited from earlier work
[2] = Clarkes Analysis of Drugs and Poisons; cited from earlier work
[3] = Electrokinetic cross-membrane isolation (ECMI) of basic drugs; recovery in acceptor solution by capillary electrophoresis; type: physicochemical; parameters: key to Recovery: *: Recovery was observed, but results were unreliable due to large standard deviations; details: for Recovery: liquid membrane 2-octanone, 300 V, 5 min, 5.2 mm vial; for Enrichment: optimal ECMI, 300 μl sample to 30 μl acceptor
Experimental: The DC power supply used was a model XFR 300-9 (Xantrex, Burnaby, BC, Canada) with a programmable voltage in the range 0 to 300 V, providing currents in the range 0 to 9 A. Simple steel wires with a diameter of 0.2 mm were used as electrodes in the sample and acceptor solutions, and were connected to the power supply. As sample compartment, 800 μL polypropylene vials with cap were used with a height of 35 mm and with an internal diameter of 5.2 mm (unknown supplier). […] The porous hollow fiber used for immobilization of the artificial liquid membrane and for housing the acceptor solution was a PP Q3/2 polypropylene hollow fiber (Membrana, Wuppertal, Germany) with an internal diameter of 1.2 mm, with a 200 μm wall thickness, and with 0.2 μm pores. The ECMI was agitated at 1200 rpm during the experiments with a Vibramax 100 agitator (Heidolph, Kelheim, Germany).
ECMI was performed according to the following procedure; 300 μl acidified sample solution was filled into a polypropylene vial, and the positive electrode was placed in the sample. A 3.1 cm piece of polypropylene hollow fiber was closed in the lower end by mechanical pressure, whereas the upper end was connected to a 2.2 cm length pipette tip of polypropylene as a guiding tube. The hollow fiber and the guiding tube were then inserted through the cap of the sample vial. The hollow fiber was dipped for 5 s in the organic solvent serving as the artificial liquid membrane (typically 2-nitrophenyl octyl ether, nitrobenzene, 1-isopropyl nitrobenzene, octanol or heptanol), and excess of solvent was removed with a medical wipe. With a micro syringe, 30 μL of acceptor solution was filled into the hollow fiber, and the negative electrode was placed in the acceptor solution. Finally, the hollow fiber with acceptor solution was placed into the sample, and voltage (typically 300 V) was applied for 5 minutes. After electrokinetic cross-membrane isolation, the acceptor solution was collected with a micro syringe, and was transferred to a micro insert for the capillary electrophoresis instrument.
Capillary electrophoresis was performed with a MDQ instrument (Beckman, Fullerton, Calif., USA) equipped with a UV-detector. Separations were accomplished in a 75-μm-i.d. fused-silica capillary with an effective length of 20 cm (Beckman). The running buffer was 15 mM phosphate adjusted to pH 2.7 with ortho-phosphoric acid. The instrument was operated at 20 kV, which generated a current level of approximately 50 μA. Samples were introduced by hydrodynamic injection at 0.5 psi for 5 s. Detection was accomplished at 200 nm utilizing a 100×800 μm slit.
Recovery (R) during the cross-membrane isolation was calculated according to the following equation for each analyte: R=na,final/ns,initial×100%=(Va/Vs)(Ca,final/Cs,initial)·100% (1) where ns,initial and na,final are the number of moles of analyte originally present in the sample and the number of moles of analyte finally collected in the acceptor solution, respectively. Va is the volume of acceptor phase, Vs is the volume of sample, Ca,final is the final concentration of analyte in the acceptor phase, and Cs,initial is the initial analyte concentration within the sample.
Enrichment (E) during the cross-membrane isolation was calculated according to the following equation for each analyte: E=Ca,final/Cs,initial (2) Results and Discussion Initial Experiments.

| Structure (SMILES) | log P [1] | pKa [2] | Recovery [3] | Enrichment [3] |
| --- | --- | --- | --- | --- |
| CN1CCC[C@@H]1CCO[C@](C)(c1ccccc1)c1ccc(Cl)cc1 [Clemastine, clemastine] | 5.7 | 10.2 |  |  |
| CN(C)CCCN1c2ccccc2CCc2ccc(Cl)cc21 [Clomipramine, clomipramine] | 5.2 |  |  |  |
| OCCN1CCN(CCCN2c3ccccc3Sc3ccc(C(F)(F)F)cc32)CC1 [Fluphenazine, fluphenazine] | 3.5 |  |  |  |
| O=C(CCCN1CCC(O)(c2ccc(Cl)cc2)CC1)c1ccc(F)cc1 [Haloperidol, haloperidol] | 3.2 |  | * | 7.2 |
| OCCOCCN1CCN(C(c2ccccc2)c2ccc(Cl)cc2)CC1 (centres unmarked) [Hydroxyzine, hydroxyzine] | 2.4 |  |  |  |
| CN(C)C(=O)C(CCN1CCC(O)(c2ccc(Cl)cc2)CC1)(c1ccccc1)c1ccccc1 [Loperamide, loperamide hydrochloride] | 5.2 | 8.1 | * | 7.6 |
| COc1ccc(CN(CCN(C)C)c2ccccn2)cc1 [Mepyramine, mepyramine] | 2.8 |  |  |  |
| CN[C@@H](C)Cc1ccccc1 [Metamfetamine, methamphetamine sulphate] |  | 10.1 |  |  |
| C[C@H](N)[C@H](O)c1cccc(O)c1 [Metaraminol, metaraminol hydrochloride] | −0.3 | 8.6 |  |  |
| CCC(=O)C(CC(C)N(C)C)(c1ccccc1)c1ccccc1 (centres unmarked) [Methadone, methadone hydrochloride] |  |  | * | 7.9 |
| CNCCC=C1c2ccccc2CCc2ccccc21 [Nortriptyline, nortriptyline hydrochloride] | 1.7 |  | * | 7.0 |
| CCOC(=O)C1(c2ccccc2)CCN(C)CC1 [Pethidine, Pethidine hydrochloride] |  |  | * | 7.0 |
| c1ccc(C2(N3CCCCC3)CCCCC2)cc1 [Phencyclidine, phencyclidine] | 4.7 |  |  |  |
| CC(=O)Nc1ccc(OCC(O)CNC(C)C)cc1 (centres unmarked) [Practolol, practolol] | −1.3 |  |  |  |
| CC(CN1c2ccccc2Sc2ccccc21)N(C)C (centres unmarked) [Promethazine, promethazine] | 2.9 |  |  |  |
